Data published in patent US20240317777A1, “NOVEL MACROCYCLIC AMINOPYRAZOLE COMPOUNDS AS CDK2 INHIBITORS” (Accutar Biotechnology Inc., priority 2023, published 2024).
Read-outs that look alike come from different tables or passages of the source.

Legend:
CCNE1-normal SKOV3 cells = experiment: Cell growth inhibition of CCNE1-normal SKOV3 cells (CellTiter-Glo); assay type: cell-based; settings: Homo sapiens, SK-OV-3, 144 h, 6 days
Outline: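 Growth was measured by CellTiter-Glo luminescence after 6 days' compound exposure at 37 °C. Cells were plated one day before dosing at 1000 per well in medium with 10% FBS, and compounds were diluted from DMSO stocks.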

CDK1-CYCLIN B = CDK1-CYCLIN B (Homo sapiens, UniProt P06493); experiment: CDK protein kinase inhibition by ADP-Glo assay, CDK1-CYCLIN B; assay type: biochemical; settings: for IC50: read-out: CDK1-CYCLINB, IC50; for CDK2 Fold selectivity against CDK1: fold selectivity for CDK2 over CDK1, recombinant CDK kinases
Chain of CDK1-CYCLIN B (P06493 whole entry): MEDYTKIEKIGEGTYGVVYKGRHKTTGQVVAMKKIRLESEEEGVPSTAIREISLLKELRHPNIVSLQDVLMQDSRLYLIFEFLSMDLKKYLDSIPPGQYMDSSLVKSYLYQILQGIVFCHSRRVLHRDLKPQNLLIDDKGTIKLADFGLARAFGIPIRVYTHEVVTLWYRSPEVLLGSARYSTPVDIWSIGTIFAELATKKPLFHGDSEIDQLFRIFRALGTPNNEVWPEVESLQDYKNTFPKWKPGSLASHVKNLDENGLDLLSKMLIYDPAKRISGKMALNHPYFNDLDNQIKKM
Chain of CDK1-CYCLIN B (P14635 whole entry partner): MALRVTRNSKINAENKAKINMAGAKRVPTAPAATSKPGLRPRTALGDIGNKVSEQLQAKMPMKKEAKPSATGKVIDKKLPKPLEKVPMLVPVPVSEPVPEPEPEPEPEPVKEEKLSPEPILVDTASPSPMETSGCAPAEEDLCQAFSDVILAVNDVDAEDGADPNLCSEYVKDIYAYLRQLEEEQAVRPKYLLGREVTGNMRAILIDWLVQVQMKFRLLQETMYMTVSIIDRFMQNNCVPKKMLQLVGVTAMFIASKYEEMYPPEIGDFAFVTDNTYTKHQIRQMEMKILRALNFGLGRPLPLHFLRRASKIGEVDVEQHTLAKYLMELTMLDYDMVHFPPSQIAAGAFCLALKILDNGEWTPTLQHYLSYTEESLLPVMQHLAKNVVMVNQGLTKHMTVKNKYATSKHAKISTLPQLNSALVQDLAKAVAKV
Description: (§1) CDK Protein Kinase Inhibition by ADP-Glo Assay
(§2) This ADP-Glo assay measures ADP formed from a kinase reaction and indirectly quantifies the phosphorylation of peptide substrates by the CDK/cyclin protein complexes. The typical assays were carried out in Nanosyn by combining kinase/cyclin complexes, substrates, compounds, and cofactors (ATP and Mg2+) in a well of a 384-well microtiter plate (Corning 3824) and incubating at 22° C. (Table 1). At the end of the incubation, the reaction is quenched, and conversion is detected by luminescence using the Promega ADP-Glo™ Kinase Assay kit (catalog #V9102).
(§3) Final assay buffer mixture contains: • 100 mM HEPES, pH 7.5 • 0.1% BSA • 0.01% Triton X-100 • 1 mM DTT • 5 mM MgCl2 • 10 μM Sodium Orthovanadate • 100 μM Beta-Glycerophosphate • 1000 μM Ultra Pure ATP (provided in the Promega ADP-Glo™ Kinase Assay kit) • 1% DMSO (from compound)
(§4) Upon completion, 5 μL of the ADP Glo reagent was added to each well and the plate was further incubated at room temperature for 45 minutes. 10 uL of the Kinase Detection Reagent was subsequently added to each well. After 10 minutes of incubation, the plate was read and analyzed on the BioTek Synergy microplate reader using BioTek Gen5 software.

CDK4-CYCLIN D1 = CDK4-CYCLIN D1 (Homo sapiens, UniProt P11802); experiment: CDK protein kinase inhibition by ADP-Glo assay, CDK4-CYCLIN D1; assay type: biochemical; settings: for IC50: read-out: CDK4-CYCLIND1, IC50; for CDK2 Fold selectivity against CDK4: fold selectivity for CDK2 over CDK4, recombinant CDK kinases
Chain of CDK4-CYCLIN D1 (P11802 whole entry): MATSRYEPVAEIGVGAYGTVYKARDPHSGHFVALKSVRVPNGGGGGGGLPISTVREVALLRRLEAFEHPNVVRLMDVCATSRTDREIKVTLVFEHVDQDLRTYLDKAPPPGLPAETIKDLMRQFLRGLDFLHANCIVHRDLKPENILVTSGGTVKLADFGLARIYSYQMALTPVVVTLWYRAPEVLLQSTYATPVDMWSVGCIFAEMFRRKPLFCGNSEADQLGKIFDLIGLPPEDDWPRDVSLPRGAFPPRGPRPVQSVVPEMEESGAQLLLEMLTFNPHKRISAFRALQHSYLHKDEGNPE
Chain of CDK4-CYCLIN D1 (P24385 whole entry partner): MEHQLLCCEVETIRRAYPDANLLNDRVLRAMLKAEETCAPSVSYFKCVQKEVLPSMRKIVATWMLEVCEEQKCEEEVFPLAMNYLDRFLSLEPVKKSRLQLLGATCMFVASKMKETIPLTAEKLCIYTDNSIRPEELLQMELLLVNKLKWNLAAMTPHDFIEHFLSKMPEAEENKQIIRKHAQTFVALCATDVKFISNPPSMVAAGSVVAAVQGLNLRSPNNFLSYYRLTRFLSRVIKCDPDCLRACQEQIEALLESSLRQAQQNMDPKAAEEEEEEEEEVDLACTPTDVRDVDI
Description: as §1, §2, §3, §4

[1] = tested on: CCNE1-amplified OVCAR3 cells; experiment: Cell growth inhibition of CCNE1-amplified OVCAR3 cells (CellTiter-Glo); assay type: cell-based; settings: Homo sapiens, OVCAR-3, 144 h, 6 days
Outline: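 Growth read-out was CellTiter-Glo luminescence, taken after 10 min at room temperature at the end of a 6-day compound exposure at 37 °C. Compounds were diluted from DMSO stocks across various concentrations.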

CDK2-CYCLIN E1 = CDK2-CYCLIN E1 (Homo sapiens, UniProt P24941); experiment: CDK protein kinase inhibition by ADP-Glo assay, CDK2-CYCLIN E1; assay type: biochemical; settings: read-out: CDK2-CYCLINE, IC50
Description: as §1, §2, §3, §4

CDK6-CYCLIN D3 = CDK6-CYCLIN D3 (Homo sapiens, UniProt Q00534); experiment: CDK protein kinase inhibition by ADP-Glo assay, CDK6-CYCLIN D3; assay type: biochemical; settings: for IC50: read-out: CDK6-CYCLIND3, IC50; for CDK2 Fold selectivity against CDK6: fold selectivity for CDK2 over CDK6, recombinant CDK kinases
Chain of CDK6-CYCLIN D3 (Q00534 whole entry): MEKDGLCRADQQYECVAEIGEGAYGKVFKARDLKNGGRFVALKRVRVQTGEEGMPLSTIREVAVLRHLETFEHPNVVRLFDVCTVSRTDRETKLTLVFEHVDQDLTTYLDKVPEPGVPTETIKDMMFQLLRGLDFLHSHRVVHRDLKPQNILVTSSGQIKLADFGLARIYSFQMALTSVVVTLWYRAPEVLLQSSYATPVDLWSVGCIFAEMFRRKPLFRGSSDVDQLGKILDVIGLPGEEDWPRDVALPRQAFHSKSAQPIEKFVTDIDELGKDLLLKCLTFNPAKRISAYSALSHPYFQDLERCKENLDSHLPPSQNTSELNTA
Chain of CDK6-CYCLIN D3 (P30281 whole entry partner): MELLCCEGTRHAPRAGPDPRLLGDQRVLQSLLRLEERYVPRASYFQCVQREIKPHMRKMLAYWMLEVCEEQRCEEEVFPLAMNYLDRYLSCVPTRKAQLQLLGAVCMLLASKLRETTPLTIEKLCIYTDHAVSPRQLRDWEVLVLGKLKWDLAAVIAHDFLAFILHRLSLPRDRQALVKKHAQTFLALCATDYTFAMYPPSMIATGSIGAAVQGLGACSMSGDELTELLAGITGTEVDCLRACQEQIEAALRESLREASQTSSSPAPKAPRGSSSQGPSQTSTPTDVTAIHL
Description: as §1, §2, §3, §4

[2] = tested on: Phospho-Rb (Ser807/811) in OVCAR3 cells; experiment: Phospho-Rb expression inhibition in OVCAR3 cells quantified by In Cell Western; assay type: cell-based; settings: Homo sapiens, OVCAR-3, 24 hours, read-out: OVCAR-3 pRb IC50
Outline: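 In-cell western: after 24 h compound exposure at 37° C, fixed OVCAR3 cells co-stained for pRb Ser807/811 (800 nm channel) and total Rb (680 nm channel), imaged by LI-COR Odyssey.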

CDK9-CYCLIN T1 = CDK9-CYCLIN T1 (Homo sapiens, UniProt P50750); experiment: CDK protein kinase inhibition by ADP-Glo assay, CDK9-CYCLIN T1; assay type: biochemical; settings: for IC50: read-out: CDK9-CYCLINT1, IC50; for CDK2 Fold selectivity against CDK9: fold selectivity for CDK2 over CDK9, recombinant CDK kinases
Chain of CDK9-CYCLIN T1 (P50750 whole entry): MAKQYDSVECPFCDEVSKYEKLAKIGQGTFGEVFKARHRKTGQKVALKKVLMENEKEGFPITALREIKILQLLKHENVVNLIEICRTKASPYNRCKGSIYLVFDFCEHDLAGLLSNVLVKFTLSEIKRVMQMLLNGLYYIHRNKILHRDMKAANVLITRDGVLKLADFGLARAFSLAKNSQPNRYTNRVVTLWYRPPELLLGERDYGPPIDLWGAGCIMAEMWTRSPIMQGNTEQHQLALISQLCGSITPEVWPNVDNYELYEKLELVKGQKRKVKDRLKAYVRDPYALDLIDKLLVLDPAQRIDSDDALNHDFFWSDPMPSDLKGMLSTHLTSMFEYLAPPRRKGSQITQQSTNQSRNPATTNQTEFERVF
Chain of CDK9-CYCLIN T1 (O60563 whole entry partner): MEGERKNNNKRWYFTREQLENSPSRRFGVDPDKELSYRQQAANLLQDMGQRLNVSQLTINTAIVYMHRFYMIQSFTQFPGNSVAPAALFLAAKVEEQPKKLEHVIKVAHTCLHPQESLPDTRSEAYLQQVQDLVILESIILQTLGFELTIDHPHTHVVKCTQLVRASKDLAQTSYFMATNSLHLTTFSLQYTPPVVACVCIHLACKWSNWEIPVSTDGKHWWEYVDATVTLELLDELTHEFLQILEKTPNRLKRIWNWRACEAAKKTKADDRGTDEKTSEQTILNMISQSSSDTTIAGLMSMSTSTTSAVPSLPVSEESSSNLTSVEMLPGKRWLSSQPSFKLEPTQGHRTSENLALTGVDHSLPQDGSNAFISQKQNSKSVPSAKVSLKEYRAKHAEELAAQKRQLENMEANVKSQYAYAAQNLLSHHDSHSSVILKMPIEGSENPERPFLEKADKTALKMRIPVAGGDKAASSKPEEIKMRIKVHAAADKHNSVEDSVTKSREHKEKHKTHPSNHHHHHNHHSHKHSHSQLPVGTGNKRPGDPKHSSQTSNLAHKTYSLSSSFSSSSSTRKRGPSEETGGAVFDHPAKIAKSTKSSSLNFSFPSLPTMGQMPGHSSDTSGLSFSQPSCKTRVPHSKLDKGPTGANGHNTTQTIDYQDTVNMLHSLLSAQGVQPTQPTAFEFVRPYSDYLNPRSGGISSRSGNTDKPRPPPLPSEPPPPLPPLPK
Description: as §1, §2, §3, §4

[3] = Table 35, recombinant CDK kinase
[4] = Table 37, recombinant CDK kinase

| Compound | IC50 [1] [nM] | IC50 [2] [nM] | IC50 (CDK1-CYCLIN B; [4]) [nM] | CDK2 Fold selectivity against CDK1 (CDK1-CYCLIN B; Table 38) | IC50 (CDK4-CYCLIN D1; [4]) [nM] | CDK2 Fold selectivity against CDK4 (CDK4-CYCLIN D1; Table 38) | IC50 (CDK2-CYCLIN E1; [4]) [nM] | IC50 (CDK6-CYCLIN D3; [4]) [nM] | CDK2 Fold selectivity against CDK6 (CDK6-CYCLIN D3; Table 38) | IC50 (CDK9-CYCLIN T1; [4]) [nM] | CDK2 Fold selectivity against CDK9 (CDK9-CYCLIN T1; Table 38) | also measured |
| --- | --- | --- | --- | --- | --- | --- | --- | --- | --- | --- | --- | --- |
| O=C1N[C@H]2C[C@@H](CC(F)(F)c3cc(ccn3)Nc3cc(n[nH]3)[C@H]3CC[C@H](C3)O1)C2 (single isomer, unassigned) [Compound 170, (1^1S,1^3R,7^1S,7^3R,Z)-5,5-difluoro-2^1H-10-oxa-3,8-diaza-4(4,2)-pyridina-2(3,5)-pyrazola-1(1,3)-cyclopentana-7(1,3)-cyclobutanacyclodecaphan-9-one] | 2 to 10 | 2 to 10 |  |  |  |  |  |  |  |  |  | IC50 (CCNE1-normal SKOV3 cells): 50 to 250 nM; IC50 (CDK1-CYCLIN B; ADP-Glo, 1000 μM ATP, Table 31): ≤ 10 nM; CDK2 Fold selectivity, CDK1 (CDK1-CYCLIN B; CDK2 versus CDK1, Table 32): E (E, <20); IC50 (CDK4-CYCLIN D1; ADP-Glo, 1000 μM ATP, Table 31): 10 to 50 nM; CDK2 Fold selectivity, CDK4 (CDK4-CYCLIN D1; CDK2 versus CDK4, Table 32): E (E, <20); IC50 (CDK2-CYCLIN E1; ADP-Glo, 1000 μM ATP, Table 31): ≤ 10 nM; IC50 (CDK6-CYCLIN D3; ADP-Glo, 1000 μM ATP, Table 31): 10 to 50 nM; CDK2 Fold selectivity, CDK6 (CDK6-CYCLIN D3; CDK2 versus CDK6, Table 32): E (E, <20); IC50 (CDK9-CYCLIN T1; ADP-Glo, 1000 μM ATP, Table 31): 10 to 50 nM; CDK2 Fold selectivity, CDK9 (CDK9-CYCLIN T1; CDK2 versus CDK9, Table 32): E (E, <20) |
| O=C1NCCCCCc2cc(ccn2)Nc2cc([nH]n2)[C@H]2CC[C@H](C2)O1 [Compound 4, (1^1S,1^3R,Z)-2^1H-12-oxa-3,10-diaza-4(4,2)-pyridina-2(3,5)-pyrazola-1(1,3)-cyclopentanacyclododecaphan-11-one] | 50 to 250 | 10 to 50 |  |  |  |  |  |  |  |  |  | IC50 (CCNE1-normal SKOV3 cells): 250 to 1250 nM; IC50 (CDK1-CYCLIN B; ADP-Glo, 1000 μM ATP, Table 7): 100 to 500 nM; CDK2 fold selectivity over CDK1 (CDK1-CYCLIN B; CDK2 versus CDK1, Table 8): D (D, >20 and ≤50); IC50 (CDK4-CYCLIN D1; ADP-Glo, 1000 μM ATP, Table 7): 50 to 100 nM; CDK2 Fold Sensitivity, CDK4 (CDK4-CYCLIN D1; CDK2 versus CDK4, Table 8): E (E, <20); IC50 (CDK2-CYCLIN E1; ADP-Glo, 1000 μM ATP, Table 7): ≤ 10 nM; IC50 (CDK6-CYCLIN D3; ADP-Glo, 1000 μM ATP, Table 7): 50 to 100 nM; CDK2 Fold Sensitivity, CDK6 (CDK6-CYCLIN D3; CDK2 versus CDK6, Table 8): E (E, <20); IC50 (CDK9-CYCLIN T1; ADP-Glo, 1000 μM ATP, Table 7): 100 to 500 nM; CDK2 Fold Sensitivity, CDK9 (CDK9-CYCLIN T1; CDK2 versus CDK9, Table 8): D (D, >20 and ≤50) |
| [2H]C1([2H])Oc2cc(ccn2)Nc2[nH]nc(c2F)[C@H]2CC[C@H](C2)OC(=O)N[C@H]2C[C@H]1C2 [Compound 221, (1^1S,1^3R,7^1R,7^3S,E)-24-fluoro-2^1H-5,10-dioxa-3,8-diaza-4(4,2)-pyridina-2(3,5)-pyrazola-1(1,3)-cyclopentana-7(1,3)-cyclobutanacyclodecaphan-9-one-6,6-d2] | 10 to 50 | 10 to 50 |  |  |  |  |  |  |  |  |  | IC50 (CDK1-CYCLIN B; [3]): 50 to 100 nM; CDK2 Fold selectivity against CDK1 (CDK1-CYCLIN B; Table 36): E (E, <20); IC50 (CDK4-CYCLIN D1; [3]): 100 to 500 nM; CDK2 Fold selectivity against CDK4 (CDK4-CYCLIN D1; Table 36): C (C, >50 and ≤100); IC50 (CDK2-CYCLIN E1; [3]): ≤ 10 nM; IC50 (CDK6-CYCLIN D3; [3]): 100 to 500 nM; CDK2 Fold selectivity against CDK6 (CDK6-CYCLIN D3; Table 36): C (C, >50 and ≤100); IC50 (CDK9-CYCLIN T1; [3]): > 500 nM; CDK2 Fold selectivity against CDK9 (CDK9-CYCLIN T1; Table 36): B (B, >100 and ≤500) |
| O=C1NC2CC(COc3cc(ccn3)Nc3cc(n[nH]3)C3C[C@@H](F)[C@H](C3)O1)C2 [Compound 229, (1^1R,1^3S,1^4R,7^1S,7^3R,Z)-1^4-fluoro-2^1H-5,10-dioxa-3,8-diaza-4(4,2)-pyridina-2(3,5)-pyrazola-1(1,3)-cyclopentana-7(1,3)-cyclobutanacyclodecaphan-9-one] | 10 to 50 | 2 to 10 | 10 to 50 | E (E, <20) | 10 to 50 | E (E, <20) | ≤ 10 | 10 to 50 | E (E, <20) | 100 to 500 | C (C, >50 and ≤100) |  |
| O=C1NC2CC(COc3cc(ccn3)Nc3cc(n[nH]3)C3C[C@H](F)[C@@H](C3)O1)C2 [Compound 230, (1^1S,1^3R,1^4S,7^1R,7^3S,Z)-1^4-fluoro-2^1H-5,10-dioxa-3,8-diaza-4(4,2)-pyridina-2(3,5)-pyrazola-1(1,3)-cyclopentana-7(1,3)-cyclobutanacyclodecaphan-9-one] | 10 to 50 | 10 to 50 | 10 to 50 | E (E, <20) | 10 to 50 | E (E, <20) | ≤ 10 | 10 to 50 | E (E, <20) | 10 to 50 | E (E, <20) |  |
| O=C1NC2CC(COc3cc(ccn3)Nc3[nH]nc(c3F)C3C[C@@H](F)[C@H](C3)O1)C2 [Compound 231, (1^1R,1^3S,1^4R,7^1S,7^3R,E)-1^4,2^4-difluoro-2^1H-5,10-dioxa-3,8-diaza-4(4,2)-pyridina-2(3,5)-pyrazola-1(1,3)-cyclopentana-7(1,3)-cyclobutanacyclodecaphan-9-one] | 10 to 50 | 10 to 50 | 50 to 100 | E (E, <20) | 100 to 500 | B (B, >100 and ≤500) | ≤ 10 | 100 to 500 | B (B, >100 and ≤500) | > 500 | B (B, >100 and ≤500) |  |
| O=C1NC2CC(COc3cc(ccn3)Nc3[nH]nc(c3F)C3C[C@H](F)[C@@H](C3)O1)C2 [Compound 232, (1^1S,1^3R,1^4S,7^1R,7^3S,E)-1^4,2^4-difluoro-2^1H-5,10-dioxa-3,8-diaza-4(4,2)-pyridina-2(3,5)-pyrazola-1(1,3)-cyclopentana-7(1,3)-cyclobutanacyclodecaphan-9-one] | 50 to 250 | 10 to 50 | 100 to 500 | E (E, <20) | 50 to 100 | E (E, <20) | 10 to 50 | 100 to 500 | E (E, <20) | 100 to 500 | E (E, <20) |  |
